Results on five compounds are retold here after article PMC6253998, “Ring-substituted 4-Hydroxy-1H-quinolin-2-ones: Preparation and Biological Activity” (Molecules, 2009).

One data set concerns Candida tropicalis 156. Put plainly: In vitro antifungal broth microdilution test. It is filed as cell-based. The following applies: Candida tropicalis, 156, RPMI 1640, pH 7.0, 35 °C, read-out: MIC/IC80 CT. How it is done: (§1) Fluconazole (FLU) was used as the standard of a clinically used antimycotic drug. The procedure was performed with twofold dilution of the compounds in […]., Prague, Czech Republic) buffered to pH 7.0 with 0.165 mol of 3-morpholino-propane-1-sulfonic acid (MOPS, Sigma, Germany). […] Drug-free controls were included. The MIC was defined as an 80% or greater (IC80) reduction of growth in comparison with the control.

The subject of data set [1] is Candida albicans ATCC 44859. Kind of data set: In vitro antifungal broth microdilution test. The data set is classed as cell-based. Particulars: Candida albicans, ATCC44859, RPMI 1640, pH 7.0, 35 °C, read-out: MIC/IC80 CA. How it is done:
as §1
(In general: Broth dilution looks for growth in wells or tubes with falling amounts of substance.)

Another data set concerns Candida glabrata 20/I. Kind of data set: In vitro antifungal broth microdilution test. It is filed as cell-based. Particulars: Nakaseomyces glabratus, 20/I, RPMI 1640, pH 7.0, 35 °C, read-out: MIC/IC80 CG. How it is done: as §1
The test system of another data set is Absidia corymbifera 272. Put plainly: In vitro antifungal broth microdilution test. The data set is classed as cell-based. Particulars: Lichtheimia corymbifera, 272, RPMI 1640, pH 7.0, 35 °C, read-out: MIC/IC80 AC. How it is done:
as §1

For data set [2], the system named is Trichophyton mentagrophytes 445. Put plainly: In vitro antifungal broth microdilution test. The data set is classed as cell-based. Particulars: Trichophyton mentagrophytes, 445, RPMI 1640, pH 7.0, 35 °C, read-out: MIC/IC80 TM. How it is done:
as §1

For data set [3], the system named is Aspergillus fumigatus 231. Kind of data set: In vitro antifungal broth microdilution test. Particulars: Aspergillus fumigatus, 231, RPMI 1640, pH 7.0, 35 °C, read-out: MIC/IC80 AF. The data set is classed as cell-based. How it is done: as §1
In a further data set the test system is Candida krusei ATCC 6258. Put plainly: In vitro antifungal broth microdilution test. The data set is classed as cell-based. Particulars: Pichia kudriavzevii, ATCC6258, RPMI 1640, pH 7.0, 35 °C, read-out: MIC/IC80 CK. How it is done: as §1
A further data set concerns spinach chloroplasts. Kind of data set: Inhibition of oxygen evolution rate (OER) / photosynthetic electron transport in spinach chloroplasts. The following applies: for IC50: DCPIP photoreduction, pH 7.2. The data set is classed as biochemical, Spinacia oleracea L. How it is done:
Chloroplasts were prepared from spinach (Spinacia oleracea L.) according to Masarovicova and Kralova. The inhibition of photosynthetic electron transport (PET) in spinach chloroplasts was determined spectrophotometrically (Genesys 6, Thermo Scientific, U.S.A.) using an artificial electron acceptor 2,6-dichlorophenol-indophenol (DCPIP) according to Kralova et al. and the rate of photosynthetic electron transport was monitored as a photoreduction of DCPIP. The measurements were carried out in phosphate buffer (0.02 mol/L, pH 7.2) containing sucrose (0.4 mol/L), MgCl2 (0.005 mol/L) and NaCl (0.015 mol/L). The chlorophyll content was 30 mg/L in these experiments and the samples were irradiated (~100 W/m^2) from 10 cm distance with a halogen lamp (250 W) using a 4 cm water filter to prevent warming of the samples (suspension temperature 22 °C). The studied compounds were dissolved in DMSO due to their limited water solubility. […] The inhibitory efficiency of the studied compounds was expressed by IC50 values, i.e. by molar concentration of the compounds causing 50% decrease in the oxygen evolution rate relative to the untreated control.

Data set [4] has as its system Trichosporon beigelii 1188. Kind of data set: In vitro antifungal broth microdilution test. It is filed as cell-based. Particulars: Trichosporon beigelii, 1188, RPMI 1640, pH 7.0, 35 °C, read-out: MIC/IC80 TB. How it is done:
The broth microdilution test was used for the assessment of in vitro antifungal activity of the synthesized compounds against Candida albicans ATCC 44859 (CA), Candida tropicalis 156 (CT), Candida krusei ATCC 6258 (CK), Candida glabrata 20/I (CG), Trichosporon beigelii 1188 (TB), Aspergillus fumigatus 231 (AF), Absidia corymbifera 272 (AC), and Trichophyton mentagrophytes 445 (TM). Fluconazole (FLU) was used as the standard of a clinically used antimycotic drug. The procedure was performed with twofold dilution of the compounds in RPMI 1640 (Sevapharma a.s., Prague, Czech Republic) buffered to pH 7.0 with 0.165 mol of 3-morpholino-propane-1-sulfonic acid (MOPS, Sigma, Germany). The final concentrations of the compounds ranged from 500 to 0.975 μmol/l. Drug–free controls were included. The MIC was defined as an 80% or greater (IC80) reduction of growth in comparison with the control. The values of MICs were determined after 24 and 48 h of static incubation at 35 °C. For T. mentagrophytes, the final MICs were determined after 72 and 120 h of incubation.

Data set [5] can be described thus: Lipophilicity HPLC determination (capacity factor k / log k). It is filed as physicochemical. Particulars: RP-HPLC, C18 column, MeOH 55.0% / H2O 45.0%, isocratic. How it is done:
Hydrophobicities (log P/Clog P values) of the compounds 1-12 were calculated using two commercially available programs and also measured by means of the reversed phase high performance liquid chromatography (RP-HPLC) method for lipophilicity measurement. The procedure was performed under isocratic conditions with methanol as an organic modifier in the mobile phase using an end-capped non-polar C18 stationary RP column. The capacity factors k were determined and subsequent log k values were calculated.
The HPLC separation module Waters Alliance 2695 XE and Waters Photodiode Array Detector 2996 (Waters Corp., Milford, MA, U.S.A.) were used. A Symmetry® C18 5 μm, 4.6 × 250 mm, Part No. WAT054275, (Waters Corp., Milford, MA, U.S.A.) chromatographic column was used. The HPLC separation process was monitored by Millennium32® Chromatography Manager Software, Waters 2004 (Waters Corp., Milford, MA, U.S.A.). The mixture of MeOH p.a. (55.0%) and H2O-HPLC – Mili-Q Grade (45.0%) was used as a mobile phase. The total flow of the column was 0.9 mL/min, injection 30 μL, column temperature 30 °C and sample temperature 10 °C. The detection wavelength 210 nm was chosen. The KI methanolic solution was used for the dead time (TD) determination. Retention times (tR) were measured in minutes. The capacity factors k were calculated using the Millennium32® Chromatography Manager Software according to formula k = (tR - tD) / tD, where tR is the retention time of the solute, whereas tD denotes the dead time obtained via an unretained analyte. Log k, calculated from the capacity factor k, is used as the lipophilicity index converted to log P scale.

SMILES strings stand for the structures. Read-outs that look alike come from different tables or passages of the source. Bounds are passed on as bounds.

By IC50 is commonly meant the concentration that inhibits the measured activity by half. Low values mean inhibition by little substance, high ones a need for much substance. `Cc1ccc2[nH]c(=O)cc(O)c2c1` [Compound 2, 4-Hydroxy-6-methylquinolin-2(1H)-one]: the MIC (in the data set with Candida tropicalis 156 (24h); with Candida tropicalis 156 (48h); in [1] (24h); in data set [1] (48h); with Candida glabrata 20/I (24h); in the data set on Candida glabrata 20/I (48h)) was over 500 µM throughout. Moreover, the MIC (with Absidia corymbifera 272 (24h); in the data set on Absidia corymbifera 272 (48h); in data set [2] (72h); in [2] (120h); in [3] (24h); in data set [3] (48h)) was over 500 µM each time. In addition, the MIC (in the data set on Candida krusei ATCC 6258 (24h); with Candida krusei ATCC 6258 (48h); in data set [4] (24h); in data set [4] (48h)) was over 500 µM in each case. The same compound came in with an IC50 with spinach chloroplasts of 157 µM. Moreover, the log k in data set [5] amounted to 0.3307.

As for `O=C(O)c1c(O)c2ccccc2[nH]c1=O` [Compound 10, 4-Hydroxy-2-oxo-1,2-dihydroquinoline-3-carboxylic acid], the MIC (in the data set with Candida tropicalis 156 (24h); in the data set with Candida tropicalis 156 (48h); in [1] (24h); in data set [1] (48h); in the data set with Candida glabrata 20/I (24h); in the data set on Candida glabrata 20/I (48h)) was over 500 µM in each case. The MIC (in the data set with Absidia corymbifera 272 (24h); in the data set on Absidia corymbifera 272 (48h); in [2] (72h); in data set [2] (120h); in data set [3] (24h); in [3] (48h)) was over 500 µM each time. The MIC (in the data set with Candida krusei ATCC 6258 (24h); in the data set with Candida krusei ATCC 6258 (48h); in [4] (24h); in data set [4] (48h)) was over 500 µM in each case. Further, it took 567 µM to reach half-maximal inhibition in the data set on spinach chloroplasts (IC50). In [5], this compound displayed a log k of 0.0118.

For the compound `O=C(/C=C/c1ccccc1)Nc1c(O)c2ccccc2[nH]c1=O` [Compound 7, (2E)-N-(4-Hydroxy-2-oxo-1,2-dihydroquinolin-3-yl)-3-phenylprop-2-enamide], the MIC (in the data set on Candida tropicalis 156 (24h); in the data set on Candida tropicalis 156 (48h); in data set [1] (24h); in data set [1] (48h); in the data set on Candida glabrata 20/I (24h); in the data set with Candida glabrata 20/I (48h)) was over 125 µM each time. Moreover, the MIC (in the data set with Absidia corymbifera 272 (24h); with Absidia corymbifera 272 (48h); in data set [2] (72h); in [2] (120h); in data set [3] (24h); in data set [3] (48h)) was over 125 µM throughout. In addition, the MIC (in the data set on Candida krusei ATCC 6258 (24h); with Candida krusei ATCC 6258 (48h); in data set [4] (24h); in data set [4] (48h)) was over 125 µM in each case. Besides, 916 µM corresponded to half-maximal inhibition in the data set with spinach chloroplasts (IC50). For the same compound, the log k in data set [5] is listed as 0.0128.

As to `O=C(O)c1ccc(NC(=O)c2c(O)c3cc(C(=O)O)ccc3[nH]c2=O)cc1` [Compound 11, 3-(4-Carboxyphenylcarbamoyl)-4-hydroxy-2-oxo-1,2-dihydroquinoline-6-carboxylic acid], the MIC (in the data set on Candida tropicalis 156 (24h); in the data set on Candida tropicalis 156 (48h); in data set [1] (24h); in data set [1] (48h); in the data set with Candida glabrata 20/I (24h); in the data set with Candida glabrata 20/I (48h)) was over 500 µM in each case. The MIC (with Absidia corymbifera 272 (24h); in the data set on Absidia corymbifera 272 (48h); in [2] (72h); in data set [2] (120h); in data set [3] (24h); in data set [3] (48h)) was over 500 µM in each case. Moreover, the MIC (with Candida krusei ATCC 6258 (24h); in the data set on Candida krusei ATCC 6258 (48h); in data set [4] (24h); in data set [4] (48h)) was over 500 µM in each case. This compound had a 50% inhibitory concentration (IC50) in the data set with spinach chloroplasts of 380 µM. This compound showed a log k in data set [5] of 0.0081.

In the case of `CCOC(=O)c1c(O)c2ccccc2[nH]c1=O` [Compound 9, Ethyl 4-hydroxy-2-oxo-1,2-dihydroquinoline-3-carboxylate], the MIC (with Candida tropicalis 156 (24h); in the data set on Candida tropicalis 156 (48h); in data set [1] (24h); in [1] (48h); in the data set with Candida glabrata 20/I (24h); in the data set with Candida glabrata 20/I (48h)) was over 500 µM throughout. Further, the MIC (with Absidia corymbifera 272 (24h); in the data set with Absidia corymbifera 272 (48h); in [2] (72h); in [2] (120h); in [3] (24h); in data set [3] (48h)) was over 500 µM throughout. The MIC (in the data set with Candida krusei ATCC 6258 (24h); in the data set with Candida krusei ATCC 6258 (48h); in data set [4] (24h); in data set [4] (48h)) was over 500 µM each time. Further, the “OER inhibition effectiveness relative to compound 1” value in the data set with spinach chloroplasts is reported as “approximately twice as effective as compound 1”. Further, the IC50 in the data set on spinach chloroplasts was 494 µM. The log k in [5] was determined as 0.4595.
